Test results as given in US20180057505A1, “BICYCLIC HETEROARYL COMPOUNDS USEFUL AS INHIBITORS OF THE PAR-2 SIGNALING PATHWAY” (VERTEX PHARMACEUTICALS INCORPORATED, priority 2015, published 2018).

Columns and labels:
Type in all cases: cell-based
[1] = test system: UTP-stimulated Ca2+ response in HT-29 cells; assay: Ca FLIPR TETRA assay, ANTAGONIST mode, activator 0.6 μM UTP; conditions: HT-29 cells, activator 0.6 μM UTP
Summary of the method: (§1)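 HT-29 cells plated overnight at 37 °C in 1% FBS/McCoy's, loaded with calcium 5 dye (45 min 37 °C, 15 min r.t.), then preincubated with compounds 30 min at r.t. before a fixed activator challenge. Intracellular Ca2+ read by FLIPR Tetra; a first read checks compound-alone activation.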

PAR2 (HT-29 cells) [2] = biological target: T1, PAR2 (HT-29 cells) (Homo sapiens, UniProt P55085); assay: Ca FLIPR TETRA assay, ANTAGONIST mode, activator 3.1 U/mL trypsin; conditions: HT-29 cells; activator 3.1 U/mL trypsin; Method A: maximal concentration of antagonist 0.1, 1 or 2 μM
T1 construct: host or cells: HT-29
T1 sequence (P55085 26-397): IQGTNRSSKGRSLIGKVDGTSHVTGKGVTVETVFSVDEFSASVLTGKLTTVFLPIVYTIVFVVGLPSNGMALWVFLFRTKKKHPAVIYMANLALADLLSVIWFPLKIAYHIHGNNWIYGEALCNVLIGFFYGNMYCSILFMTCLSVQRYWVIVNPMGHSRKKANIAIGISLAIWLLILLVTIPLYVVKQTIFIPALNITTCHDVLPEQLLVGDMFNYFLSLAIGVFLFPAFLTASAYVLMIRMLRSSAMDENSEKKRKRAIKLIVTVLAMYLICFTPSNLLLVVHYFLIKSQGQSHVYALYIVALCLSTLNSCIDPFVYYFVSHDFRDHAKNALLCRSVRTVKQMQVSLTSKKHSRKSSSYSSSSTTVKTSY
Summary of the method: as §1

[3] = test system: Thrombin-stimulated Ca2+ response in HT-29 cells; assay: Ca FLIPR TETRA assay, ANTAGONIST mode, activator 1 U/mL Thrombin; conditions: HT-29 cells, activator 1 U/mL Thrombin
Summary of the method: as §1

PAR2 (HT-29 cells) [4] = biological target: T1, PAR2 (HT-29 cells); assay: Ca FLIPR TETRA assay, ANTAGONIST mode, activator 8 μM SLIGKV; conditions: HT-29 cells; activator 8 μM SLIGKV; Method A: maximal concentration of antagonist 0.1, 1 or 2 μM
Summary of the method: as §1

Row | Compound | IC50 ([1]; Homo sapiens) | IC50 (PAR2 (HT-29 cells) [2]) | IC50 ([3]; Homo sapiens) | IC50 (PAR2 (HT-29 cells) [4]) | IC50 [1] | IC50 [3]
1 | Cc1cc(N2CCN(C(=O)c3cc4nc(-c5ccc(Cl)c(F)c5)cc(C(C)(C)C)c4o3)C(C)(C)C2)ncc1C(=O)O [Example I-400] | 810 nM | 0.4 nM | 1010 nM | 0.3 nM |  | 
2 | Cc1cc(C(=O)O)nc(N2CCN(C(=O)c3cc4nc(-c5ccc(Cl)cc5)cc(C(C)(C)C)c4o3)C(C)(C)C2)n1 [Example I-401] | 710 nM | 0.5 nM | 960 nM | 0.3 nM |  | 
3 | CC(C)(C)c1cc(-c2ccc(Cl)cc2)nc2cc(C(=O)N3CCN(c4cnccn4)CC3(C)C)oc12 [Example I-402] | > 2000 nM | 15 nM | > 2000 nM | 21 nM |  | 
4 | Cc1ccnc(N2CCN(C(=O)c3cc4nc(-c5ccc(Cl)cc5)cc(C(C)(C)C)c4o3)C(C)(C)C2)n1 [Example I-403] | > 2000 nM | 24 nM | > 2000 nM | 23 nM |  | 
5 | CC(C)(C)c1cc(-c2ccc(Cl)cc2)nc2cc(C(=O)N3CCN(c4ncccn4)CC3(C)C)oc12 [Example I-404] | > 2000 nM | 16 nM | > 2000 nM | 25 nM |  | 
6 | CC(C)(C)c1cc(-c2ccc(Cl)c(F)c2)nc2cc(C(=O)N3CCN(c4ccc(C(=O)O)cn4)C(=O)C3(C)C)oc12 [Example I-405] | 580 nM | 1.7 nM | 750 nM | 1.8 nM |  | 
7 | CC(C)(C)c1cc(-c2ccc(Cl)c(F)c2)nc2cc(C(=O)N3CCN(c4ccn[nH]4)C(=O)C3(C)C)oc12 [Example I-406] | > 2000 nM | 8.8 nM | > 2000 nM | 10 nM |  | 
8 | CC(C)(C)c1cc(-c2ccc(Cl)cc2)nc2cc(C(=O)N3CCN(c4ccn[nH]4)C(=O)C3(C)C)oc12 [Example I-407] | > 2000 nM | 17 nM | > 2000 nM | 17 nM |  | 
9 | Cc1cc(C(=O)O)nc(N2CCN(C(=O)c3cc4nc(C5CCC(C)(C)CC5)cc(C(C)(C)C)c4o3)C(C)(C)C2)n1 [Example I-408] | 510 nM | 1 nM | 860 nM | 0.7 nM |  | 
10 | Cc1cc(C(=O)O)nc(N2CCN(C(=O)c3cc4nc(-c5ccc(Cl)c(F)c5)cc(C(C)(C)C)c4o3)C(C)(C)C2=O)n1 [Example I-409] |  | 0.5 nM |  | 0.3 nM | 560 nM | > 1010 nM
11 | Cc1nc(N2CCN(C(=O)c3cc4nc(-c5ccc(Cl)cc5)cc(C(C)(C)C)c4o3)C(C)(C)C2)ncc1C(=O)O [Example I-410] |  | 0.9 nM |  | 0.6 nM | > 1010 nM | > 1010 nM
12 | Cc1nc(N2CCN(C(=O)c3cc4nc(-c5ccc(Cl)c(F)c5)cc(C(C)(C)C)c4o3)C(C)(C)C2)ccc1C(=O)O [Example I-411] | > 2000 nM | 0.3 nM | > 2000 nM | 0.2 nM |  | 
13 | CC(C)(C)c1cc(-c2ccc(Cl)c(F)c2)nc2cc(C(=O)N3CCN(c4ccncn4)CC3(C)C)oc12 [Example I-412] | > 2000 nM | 15 nM | > 2000 nM | 13.1 nM |  | 
14 | CC1(C)CCC(c2cc(C(C)(C)C)c3oc(C(=O)N4CCN(c5ccc(C(=O)O)cn5)CC4(C)C)cc3n2)CC1 [Example I-413] | 810 nM | 0.8 nM | 810 nM | 0.6 nM |  | 
15 | CC1(C)CCC(c2cc(C(C)(C)C)c3oc(C(=O)N4CCN(c5ccnc(C(=O)O)n5)CC4(C)C)cc3n2)CC1 [Example I-414] | > 2000 nM | 16 nM | > 2000 nM | 8.5 nM |  | 
16 | CC(C)(C)c1cc(-c2ccc(Cl)cc2)nc2cc(C(=O)N3CCN(c4ccnc(C(=O)O)n4)CC3(C)C)oc12 [Example I-415] | > 2000 nM | 19 nM | > 2000 nM | 19 nM |  | 
17 | CC1(C)CCC(c2cc(C(C)(C)C)c3oc(C(=O)N4CCN(C(=O)CC(C)(C)C(=O)O)CC4(C)C)cc3n2)CC1 [Example I-416] | > 1630 nM | 0.7 nM | > 1630 nM | 0.4 nM |  | 
18 | CC(C)(CC(=O)N1CCN(C(=O)c2cc3nc(-c4ccc(Cl)c(F)c4)cc(C(C)(C)C)c3o2)C(C)(C)C1)C(=O)O [Example I-417] | > 1630 nM | 0.4 nM | > 1630 nM | 0.2 nM |  | 
19 | CC1(C)CCC(c2cc(C(C)(C)C)c3oc(C(=O)N4CCN(C(=O)CCC(=O)O)CC4(C)C)cc3n2)CC1 [Example I-418] | > 1250 nM | 5.6 nM | > 1250 nM | 2.1 nM |  | 
20 | CC(C)(C)c1cc(-c2ccc(Cl)c(F)c2)nc2cc(C(=O)N3CCN(C(=O)CCC(=O)O)CC3(C)C)oc12 [Example I-419] | > 1250 nM | 3 nM | > 1250 nM | 1.1 nM |  | 

Continued, values first:

Row | IC50 ([1]; Homo sapiens) | IC50 (PAR2 (HT-29 cells) [2]) | IC50 ([3]; Homo sapiens) | IC50 (PAR2 (HT-29 cells) [4]) | IC50 [1] | IC50 [3] | Compound
21 | > 1250 nM | 9.8 nM | > 1250 nM | 4.6 nM |  |  | CC(C)(C)c1cc(-c2ccc(Cl)cc2)nc2cc(C(=O)N3CCN(C(=O)CCC(=O)O)CC3(C)C)oc12 [Example I-420]
22 |  | 3.4 nM |  | 1.5 nM | 750 nM | 600 nM | CC(C)(C)c1cc(-c2ccc(F)cc2)nc2cc(C(=O)N3CCN(c4cnc(C(=O)O)cn4)CC3(C)C)oc12 [Example I-421]
23 |  | 0.3 nM |  | 0.2 nM | 1500 nM | 2000 nM | CC(C)(C)c1cc(-c2ccc(Cl)c(F)c2)nc2cc(C(=O)N3CCC(C(=O)[C@H]4CC[C@@](C)(C(=O)O)CC4)CC3(C)C)oc12 (stereo partly shown) [Example I-422]
24 | > 2000 nM | 0.7 nM | > 2000 nM | 0.4 nM |  |  | CC(C)(C)c1cc(-c2ccc(Cl)cc2)nc2cc(C(=O)N3CCN(C(=O)[C@H]4CC[C@@](C)(C(=O)O)CC4)CC3(C)C)oc12 [Example I-423]
25 |  | 0.3 nM |  | 0.1 nM | 1200 nM | 1800 nM | CC(C)(C)c1cc(-c2ccc(Cl)c(F)c2)nc2cc(C(=O)N3CCC(c4nc(C(=O)O)cs4)CC3(C)C)oc12 (stereo not shown) [Example I-424]
26 |  | 0.4 nM |  | 0.3 nM | > 2000 nM | > 2000 nM | Cc1oc(C2CCN(C(=O)c3cc4nc(C5CCC(C)(C)CC5)cc(C(C)(C)C)c4o3)C(C)(C)C2)nc1C(=O)O (stereo not shown) [Example I-425]
27 |  | 0.1 nM |  | 0.1 nM | 1300 nM | 1800 nM | CC(C)(C)c1cc(-c2ccc(Cl)cc2)nc2cc(C(=O)N3CCC(c4nc(C(=O)O)cs4)CC3(C)C)oc12 (stereo not shown) [Example I-426]
28 |  | 0.8 nM |  | 0.5 nM | 520 nM | 420 nM | CC1(C)CCC(c2cc(C(C)(C)C)c3oc(C(=O)N4CCC(c5ncc(C(=O)O)cn5)CC4(C)C)cc3n2)CC1 (stereo not shown) [Example I-427]
29 |  | 0.7 nM |  | 0.6 nM | 1700 nM | 1600 nM | CC(C)(C)c1cc(-c2ccc(Cl)c(F)c2)nc2cc(C(=O)N3CCC(c4ncc(C(=O)O)cn4)CC3(C)C)oc12 (stereo not shown) [Example I-428]
30 |  | 0.5 nM |  | 0.4 nM | 440 nM | 400 nM | CC(C)(C)c1cc(-c2ccc(Cl)cc2)nc2cc(C(=O)N3CCC(c4ncc(C(=O)O)cn4)CC3(C)C)oc12 (stereo not shown) [Example I-429]
31 |  | 0.9 nM |  | 0.6 nM | > 2000 nM | > 2000 nM | Cc1oc(C2CCN(C(=O)c3cc4nc(-c5ccc(Cl)c(F)c5)cc(C(C)(C)C)c4o3)C(C)(C)C2)nc1C(=O)O (stereo not shown) [Example I-430]
32 |  | 0.9 nM |  | 0.7 nM | > 2000 nM | > 2000 nM | Cc1oc(C2CCN(C(=O)c3cc4nc(-c5ccc(Cl)cc5)cc(C(C)(C)C)c4o3)C(C)(C)C2)nc1C(=O)O (stereo not shown) [Example I-431]
33 | 970 nM | 0.3 nM | 1100 nM | 0.2 nM |  |  | CC(C)(C)c1cc(-c2ccc(Cl)c(F)c2)nc2cc(C(=O)N3CCC(CC(=O)NC#N)CC3(C)C)oc12 (stereo not shown) [Example I-432]
34 | > 2000 nM | 3.4 nM | > 2000 nM | 2.7 nM |  |  | CC(C)(C)c1cc(-c2ccc(Cl)c(F)c2)nc2cc(C(=O)N3CCC(CC(=O)NS(=O)(=O)C(F)(F)F)CC3(C)C)oc12 (stereo not shown) [Example I-433]
35 | > 2000 nM | 75 nM | > 2000 nM | 26 nM |  |  | CC(C)(C)c1cc(N2CCC[C@H]2C(F)(F)F)nc2cc(C(=O)N3CCN(C(=O)[C@H]4C[C@](C)(O)C4)CC3(C)C)oc12 [Example I-434]
36 | > 2000 nM | 3.8 nM | > 2000 nM | 1.6 nM |  |  | CC(C)(C)c1cc(N2CCC3(CC2)CC3)nc2cc(C(=O)N3CCN(C(=O)[C@H]4C[C@@](C)(O)C4)CC3(C)C)oc12 [Example I-435]
37 | > 2000 nM | 7.8 nM | > 2000 nM | 6.4 nM |  |  | CC(C)(C)c1cc(N2CCC(C(F)(F)F)CC2)nc2cc(C(=O)N3CCN(C(=O)[C@H]4C[C@](C)(O)C4)CC3(C)C)oc12 [Example I-437]
